{"source": "ChEMBL document CHEMBL1201862", "about": "“PubChem BioAssay data set” (2004)", "key": {"[1]": {"test": "Trypanosoma cruzi growth suppression in host cells – NIH3T3 host cells, beta-gal luminescence, confirmation (AID 2044);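 note: intracellular parasites grown in NIH/3T3 mouse fibroblasts as host cells; luminescent beta-galactosidase reporter signal from transgenic T. cruzi replicating inside host cells; inhibitors lower the luminescence signal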", "assay_type": "functional, cell-based"}, "[2]": {"test": "HPDE-C7 pancreatic duct cell viability loss – fluorescence, HTS (AID 430)", "assay_type": "functional, cell-based", "settings": "Homo sapiens"}, "[3]": {"test": "viability loss of HPDE-C7K cells – cell-based, fluorescence, HTS, primary screen (AID 431)", "assay_type": "functional", "settings": "Homo sapiens"}, "[4]": {"test": "Luminescence Cell-Based Dose Response HTS to Identify Activators of Luciferase Translation or Activity in H4 […] Cells. [Related pubchem assays: 1829 (Project Summary), 1814 (Primary HTS)]", "assay_type": "functional"}, "H4": {"system": "H4", "test": "Luminescence Cell-Based Dose Response HTS to Identify Activators of 5'UTR Stem-Loop Driven Prion Protein mRNA Translation in H4 Neuroglioblastoma Cells. [Related pubchem assays: 1829 (Project Summary), 1814 (Primary HTS)]", "assay_type": "functional", "settings": "Homo sapiens"}, "[5]": {"biological_target": "Fructose-bisphosphate aldolase (Mycobacterium tuberculosis, UniProt P9WQA3)", "sequence (P9WQA3 whole entry)": "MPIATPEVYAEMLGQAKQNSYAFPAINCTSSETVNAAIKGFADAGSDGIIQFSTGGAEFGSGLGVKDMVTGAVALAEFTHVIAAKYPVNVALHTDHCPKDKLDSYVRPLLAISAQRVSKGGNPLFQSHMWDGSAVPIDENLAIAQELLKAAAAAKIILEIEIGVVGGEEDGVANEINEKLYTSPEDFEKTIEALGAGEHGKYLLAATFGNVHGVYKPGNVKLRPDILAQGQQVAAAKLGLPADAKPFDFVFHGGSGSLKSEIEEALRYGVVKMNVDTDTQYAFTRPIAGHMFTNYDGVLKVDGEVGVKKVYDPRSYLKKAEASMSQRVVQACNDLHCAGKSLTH", "test": "Fluorescence-based biochemical high throughput dose response assay for inhibitors of the fructose-bisphosphate aldolase (FBA) of M. tuberculosis.", "assay_type": "functional"}, "[6]": {"test": "NIH3T3 cell viability loss – ATP luminescence, mouse fibroblasts, counter-screen, dose response (AID 2010);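 note: cells exposed to compound for about 90 hours before reading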", "assay_type": "functional, cell-based"}, "[7]": {"test": "Luminescence Cell-Based Dose Confirmation HTS to Identify Activators of 5'UTR Stem-Loop Driven Alpha-Synuclein mRNA Translation in H4 Neuroglioblastoma Cells. [Related pubchem assays: 1829 (Project Summary), 1814 (Primary HTS)]", "assay_type": "functional"}, "Estrogen receptor beta [8]": {"biological_target": "T1, Estrogen receptor beta (Homo sapiens, UniProt Q92731)", "T1 sequence (Q92731 whole entry)": "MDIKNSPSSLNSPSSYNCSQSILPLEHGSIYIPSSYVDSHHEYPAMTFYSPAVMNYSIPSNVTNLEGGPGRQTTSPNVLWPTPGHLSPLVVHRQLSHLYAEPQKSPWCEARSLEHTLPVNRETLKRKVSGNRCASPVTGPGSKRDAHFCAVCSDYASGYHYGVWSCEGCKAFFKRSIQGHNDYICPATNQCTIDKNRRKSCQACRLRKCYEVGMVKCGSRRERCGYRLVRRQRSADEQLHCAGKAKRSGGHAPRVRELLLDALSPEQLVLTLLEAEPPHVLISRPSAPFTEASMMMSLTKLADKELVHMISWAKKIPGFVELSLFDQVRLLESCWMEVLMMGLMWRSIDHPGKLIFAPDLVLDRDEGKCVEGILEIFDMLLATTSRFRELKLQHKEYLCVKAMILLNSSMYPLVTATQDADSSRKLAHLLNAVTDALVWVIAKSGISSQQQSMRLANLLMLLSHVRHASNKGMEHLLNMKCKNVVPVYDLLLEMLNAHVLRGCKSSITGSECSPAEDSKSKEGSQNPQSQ"}, "Estrogen receptor beta [9]": {"biological_target": "T1, Estrogen receptor beta", "test": "blockers of SRC-3 recruitment to ERβ – biochemical, ELISA, streptavidin-HRP readout, orthogonal assay, confirmation (AID 1060)"}, "BJ [10]": {"system": "BJ", "test": "BJ-TERT fibroblast viability loss – cell-based, RAS-independent, luminescence, dose response (AID 1933)", "assay_type": "functional, Homo sapiens", "settings": "Homo sapiens, BJ"}, "[11]": {"test": "DRD fibroblast viability loss – cell-based, non-viral oncogenic, luminescence, dose response (AID 1934)", "assay_type": "functional", "settings": "Homo sapiens"}, "BJ [12]": {"system": "BJ", "test": "BJ-TERT-LT-ST fibroblast viability loss – cell-based, RAS-independent, luminescence, dose response (AID 1935);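 note: BJ fibroblasts immortalized with TERT plus LT and ST oncogenes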", "assay_type": "functional, Homo sapiens", "settings": "Homo sapiens, BJ"}, "HT-1080": {"system": "HT-1080", "test": "HT1080 cell viability loss – fluorescence readout (AID 620)", "assay_type": "functional, cell-based", "settings": "Homo sapiens"}, "[13]": {"test": "HEK-293T viability loss after treatment – luminescence, T-cell screen hits, cytotoxicity control for TCR NF-kB inhibitor project, dose response (AID 489026);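 note: cells exposed to compound about 14 hours before the viability readout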", "assay_type": "functional, cell-based"}, "[14]": {"biological_target": "Luciferin 4-monooxygenase (Photinus pyralis, UniProt P08659)", "sequence (P08659 whole entry)": "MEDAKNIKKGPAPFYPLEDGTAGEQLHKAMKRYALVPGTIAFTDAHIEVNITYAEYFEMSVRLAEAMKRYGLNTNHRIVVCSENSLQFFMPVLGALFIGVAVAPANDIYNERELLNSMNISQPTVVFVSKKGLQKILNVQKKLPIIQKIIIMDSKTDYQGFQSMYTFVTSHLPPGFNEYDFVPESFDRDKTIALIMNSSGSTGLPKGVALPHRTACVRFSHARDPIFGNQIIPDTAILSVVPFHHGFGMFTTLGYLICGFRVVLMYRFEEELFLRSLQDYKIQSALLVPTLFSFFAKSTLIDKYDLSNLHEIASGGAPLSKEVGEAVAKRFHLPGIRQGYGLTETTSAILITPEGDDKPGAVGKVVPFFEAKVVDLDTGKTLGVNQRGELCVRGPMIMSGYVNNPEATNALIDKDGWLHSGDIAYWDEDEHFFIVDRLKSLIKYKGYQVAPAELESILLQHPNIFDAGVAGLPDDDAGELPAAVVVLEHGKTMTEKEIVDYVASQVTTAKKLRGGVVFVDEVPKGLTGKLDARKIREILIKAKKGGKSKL", "test": "Counter Screen for Luciferase-based Assay Positives. [Related pubchem assays: 620, 618, 411 ]"}, "BJ [15]": {"system": "BJ", "test": "cells", "assay_type": "functional, cell-based, Homo sapiens", "settings": "Homo sapiens, BJ"}, "[16]": {"biological_target": "DNA dC->dU-editing enzyme APOBEC-3G (Homo sapiens, UniProt Q9HC16)", "sequence (Q9HC16 whole entry)": "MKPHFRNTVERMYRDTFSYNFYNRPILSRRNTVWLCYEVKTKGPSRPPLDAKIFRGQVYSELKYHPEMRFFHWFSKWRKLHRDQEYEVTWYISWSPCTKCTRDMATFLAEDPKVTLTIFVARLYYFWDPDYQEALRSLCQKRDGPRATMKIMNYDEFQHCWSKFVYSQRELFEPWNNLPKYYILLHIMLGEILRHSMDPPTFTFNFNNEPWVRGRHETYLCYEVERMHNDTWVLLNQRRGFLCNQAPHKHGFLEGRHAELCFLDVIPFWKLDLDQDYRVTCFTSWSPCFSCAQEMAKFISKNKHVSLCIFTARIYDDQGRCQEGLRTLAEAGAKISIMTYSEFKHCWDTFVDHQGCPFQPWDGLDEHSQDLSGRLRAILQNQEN", "assay_type": "functional"}, "[17]": {"biological_target": "DNA dC->dU-editing enzyme APOBEC-3A (Homo sapiens, UniProt P31941)", "sequence (P31941 whole entry)": "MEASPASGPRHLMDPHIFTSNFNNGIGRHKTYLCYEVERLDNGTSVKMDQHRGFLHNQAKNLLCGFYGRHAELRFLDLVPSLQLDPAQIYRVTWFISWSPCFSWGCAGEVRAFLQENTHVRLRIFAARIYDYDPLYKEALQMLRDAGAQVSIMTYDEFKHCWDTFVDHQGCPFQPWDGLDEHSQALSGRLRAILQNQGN", "test": "Dose Response confirmation of small molecule APOBEC3A DNA Deaminase Inhibitors via a fluorescence-based single-stranded DNA deaminase assay. [Related pubchem assays (depositor defined):AID493011, AID493024]", "assay_type": "functional"}, "[18]": {"biological_target": "Protein-tyrosine kinase 2-beta (Homo sapiens, UniProt Q14289)", "sequence (Q14289 whole entry)": "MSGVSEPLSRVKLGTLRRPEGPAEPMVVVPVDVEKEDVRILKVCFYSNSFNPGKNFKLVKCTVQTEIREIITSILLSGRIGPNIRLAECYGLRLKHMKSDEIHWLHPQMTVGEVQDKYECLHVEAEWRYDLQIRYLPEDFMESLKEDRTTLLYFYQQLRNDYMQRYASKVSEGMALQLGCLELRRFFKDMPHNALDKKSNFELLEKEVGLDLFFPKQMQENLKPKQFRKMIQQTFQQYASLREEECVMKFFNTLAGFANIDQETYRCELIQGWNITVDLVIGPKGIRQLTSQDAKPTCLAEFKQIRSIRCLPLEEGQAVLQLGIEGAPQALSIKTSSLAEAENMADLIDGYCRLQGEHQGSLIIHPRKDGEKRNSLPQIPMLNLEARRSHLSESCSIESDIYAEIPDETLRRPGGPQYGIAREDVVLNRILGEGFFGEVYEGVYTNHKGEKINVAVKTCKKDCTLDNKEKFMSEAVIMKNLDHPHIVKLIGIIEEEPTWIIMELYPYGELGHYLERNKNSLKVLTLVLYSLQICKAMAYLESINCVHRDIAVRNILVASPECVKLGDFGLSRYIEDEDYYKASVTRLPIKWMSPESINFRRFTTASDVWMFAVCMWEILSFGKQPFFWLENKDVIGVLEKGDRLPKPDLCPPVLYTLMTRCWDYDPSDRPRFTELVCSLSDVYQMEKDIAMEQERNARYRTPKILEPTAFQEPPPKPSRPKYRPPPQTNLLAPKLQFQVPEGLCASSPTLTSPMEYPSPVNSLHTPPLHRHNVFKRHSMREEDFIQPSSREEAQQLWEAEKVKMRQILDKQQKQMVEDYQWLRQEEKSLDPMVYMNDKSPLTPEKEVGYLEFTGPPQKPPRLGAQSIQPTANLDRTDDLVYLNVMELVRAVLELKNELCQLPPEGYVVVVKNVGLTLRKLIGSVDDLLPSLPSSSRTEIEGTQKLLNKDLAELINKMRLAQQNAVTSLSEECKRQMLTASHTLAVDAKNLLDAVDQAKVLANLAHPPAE"}, "Cytochrome P450 2C9": {"biological_target": "Cytochrome P450 2C9 (Homo sapiens, UniProt P11712)", "sequence (P11712 whole entry)": "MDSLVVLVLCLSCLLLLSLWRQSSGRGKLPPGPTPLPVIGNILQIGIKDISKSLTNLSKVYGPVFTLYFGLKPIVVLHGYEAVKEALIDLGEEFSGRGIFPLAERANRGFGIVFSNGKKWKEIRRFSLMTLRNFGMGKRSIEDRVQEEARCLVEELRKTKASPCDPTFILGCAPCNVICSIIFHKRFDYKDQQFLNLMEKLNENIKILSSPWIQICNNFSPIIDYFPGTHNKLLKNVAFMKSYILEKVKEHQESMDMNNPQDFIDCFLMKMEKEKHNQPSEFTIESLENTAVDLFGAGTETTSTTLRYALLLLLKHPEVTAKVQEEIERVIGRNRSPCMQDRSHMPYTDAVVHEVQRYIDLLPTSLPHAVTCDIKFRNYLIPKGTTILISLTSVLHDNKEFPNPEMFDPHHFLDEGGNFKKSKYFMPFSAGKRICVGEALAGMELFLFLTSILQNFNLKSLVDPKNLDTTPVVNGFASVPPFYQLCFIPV"}, "Cytochrome P450 2C19": {"biological_target": "Cytochrome P450 2C19 (Homo sapiens, UniProt P33261)", "sequence (P33261 whole entry)": "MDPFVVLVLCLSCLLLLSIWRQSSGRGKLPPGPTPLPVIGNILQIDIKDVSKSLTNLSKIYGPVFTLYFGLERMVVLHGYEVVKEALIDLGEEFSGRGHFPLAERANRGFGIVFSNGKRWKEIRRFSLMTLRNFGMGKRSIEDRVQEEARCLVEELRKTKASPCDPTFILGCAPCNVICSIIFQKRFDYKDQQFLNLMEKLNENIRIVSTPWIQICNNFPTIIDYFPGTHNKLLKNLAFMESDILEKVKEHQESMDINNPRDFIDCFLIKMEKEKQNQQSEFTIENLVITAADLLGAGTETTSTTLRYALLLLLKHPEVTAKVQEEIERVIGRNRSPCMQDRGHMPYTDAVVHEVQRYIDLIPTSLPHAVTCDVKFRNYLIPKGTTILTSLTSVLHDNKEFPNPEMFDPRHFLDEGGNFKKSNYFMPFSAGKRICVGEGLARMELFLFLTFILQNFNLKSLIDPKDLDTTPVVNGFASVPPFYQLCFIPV", "test": "Cytochrome panel assay with activity outcomes. Panel member name: p450-cyp2c19 Compounds with AC50 equal or less than 10 uM are considered active", "assay_type": "functional", "settings": "read-out: AC50"}, "[19]": {"test": "Luminescence Cell-Based Dose Response to Identify Activators of 5'UTR Stem-Loop Driven Prion Protein mRNA Translation in H4-C Neuroglioblastoma Cells. [Related pubchem assays: 1829 (Project Summary), 1814 (Primary HTS)]", "assay_type": "functional"}, "[20]": {"test": "Luminescence Cell-Based Dose Confirmation to Identify Activators of 5'UTR Stem-Loop Driven Alpha-Synuclein mRNA Translation in H4 Neuroglioblastoma Cells. [Related pubchem assays: 1829 (Project Summary), 1814 (Primary HTS)]", "assay_type": "functional"}, "[21]": {"test": "Luminescence Cell-Based Dose Response to Identify Activators of Luciferase Translation or Activity in H4-C Neuroglioblastoma Cells. [Related pubchem assays: 1829 (Project Summary), 1814 (Primary HTS)]", "assay_type": "functional"}, "Prothrombin": {"biological_target": "Prothrombin (Homo sapiens, UniProt P00734)", "test": "Thrombin 1536 HTS Dose Response Confirmation. [Related pubchem assays: 1046 (Thrombin 1536 HTS; hits were confirmed in this assay)]", "assay_type": "functional"}}, "note": "Where “and” joins values, the source holds several entries; their conditions need not be identical. Equal values may be shown once. Calls of active or inactive are those of the source.", "data": [{"smiles": "Nc1c(C(=O)NCc2ccco2)c2nc3ccccc3nc2n1CCN1CCCCC1", "values": [{"measurement": "EC50", "setting": "[1]", "value": "2.43 µM (active)"}, {"measurement": "EC50", "setting": "[2]", "value": "12.6 µM (active)"}, {"measurement": "EC50", "setting": "[3]", "value": "14.4 µM (active)"}, {"measurement": "EC50", "setting": "[4]", "value": "26.9 µM (active)"}, {"measurement": "EC50", "setting": "H4", "value": "> 120 µM (not active)"}, {"measurement": "IC50", "setting": "[5]", "value": "0.776 µM (active)"}, {"measurement": "EC50", "setting": "[6]", "value": "9.81 µM (active)"}, {"measurement": "EC50", "setting": "[7]", "value": "> 120 µM (not active)"}]}, {"smiles": "Cc1ccccc1Nc1nnc(SCC(=O)NCc2ccco2)s1", "values": [{"measurement": "IC50", "setting": "Estrogen receptor beta [8]", "value": "10.3 µM (active)"}, {"measurement": "IC50", "setting": "Estrogen receptor beta [9]", "value": "3.24 µM (not active) and > 50 µM (not active)"}]}, {"smiles": "CCCC(=O)C1=C(Nc2ccc(OC)cc2OC)CC(C)(C)CC1=O", "values": [{"measurement": "EC50", "setting": "BJ [10]", "value": "13.1 µM (active)"}, {"measurement": "EC50", "setting": "[11]", "value": "4.69 µM (active)"}, {"measurement": "EC50", "setting": "BJ [12]", "value": "4.43 µM (active)"}, {"measurement": "EC50", "setting": "HT-1080", "value": "17.3 µM (active)"}, {"measurement": "IC50", "setting": "[13]", "value": "> 80 µM (inactive)"}, {"measurement": "EC50", "setting": "[14]", "value": "0.55 µM (active)"}, {"measurement": "EC50", "setting": "BJ [15]", "value": "29.9 µM (active)"}]}, {"smiles": "COCCCn1c(Cc2csc(Nc3cccc(Cl)c3)n2)nnc1SCC(=O)OC1CCCCC1", "values": [{"measurement": "IC50", "setting": "[16]", "value": "38.8 µM (active)"}, {"measurement": "IC50", "setting": "Estrogen receptor beta [8]", "value": "< 1.56 µM (active)"}, {"measurement": "IC50", "setting": "[17]", "value": "20.8 µM (active)"}, {"measurement": "IC50", "setting": "Estrogen receptor beta [9]", "value": "43.4 nM (not active)"}]}, {"smiles": "Cc1ccc(C(=O)COC(=O)c2ccc3c(c2)C(=O)N(c2cccc4ncccc24)C3=O)cc1C", "values": [{"measurement": "IC50", "setting": "[18]", "value": "7.66 µM (active)"}, {"measurement": "AC50", "setting": "Cytochrome P450 2C9", "value": "0.708 µM (inconclusive)"}, {"measurement": "AC50", "setting": "Cytochrome P450 2C19", "value": "15.8 µM (inconclusive)"}]}, {"smiles": "Cc1ccc(-n2c(C)cc(C(=O)CSc3nncs3)c2C)cc1", "values": [{"measurement": "EC50", "setting": "[19]", "value": "0.332 µM (active)"}, {"measurement": "EC50", "setting": "[20]", "value": "0.346 µM (active)"}, {"measurement": "EC50", "setting": "[21]", "value": "0.34 µM (active)"}, {"measurement": "IC50", "setting": "Prothrombin", "value": "> 50 µM (not active)"}, {"measurement": "EC50", "setting": "H4", "value": "< 0.1 µM (active)"}]}]}
